Measured values: patent publication US20030176454A1, “N-coating heterocyclic compounds” (priority 2000, published 2003)

Row | melting point [°C] | Compound
1 | 183 to 186 | I.N=C(Nc1cccc(Nc2nnc3c4c(cccc24)-c2ccccc2-3)c1)c1ccccc1
2 | 113 to 115 | CS(=O)(=O)O.N=C(Nc1cccc(Nc2noc3ccccc23)c1)c1ccccc1 [Example 25, N-[3-(benzo[d]isoxazol-3-ylamino)phenyl]benzamidine methanesulfonate]
3 | 60 to 65 | Cn1cncc1-c1cccc(Nc2ccc3ccccc3n2)c1 [Example 34, [3-(1-methyl-imidazol-5-yl)-phenyl]-(quinolin-2-yl)-amine]
4 | 208 to 209 | Cn1cncc1-c1cccc(Nc2nccc3ccccc23)c1 [Example 35, [3-(1-methyl-imidazol-5-yl)-phenyl]-(isoquinolin-1-yl)-amine]
5 | 214 to 217 | c1ccc(Cc2nnc(Nc3cccc(-n4ccnc4)c3)c3ccccc23)cc1 [Example 36, (4-Benzyl-phthalazin-1-yl)-(3-imidazol-1-yl-phenyl)-amine]
6 | 189 to 192 | c1ccc2c(NCCCCNc3nccc4ccccc34)nccc2c1 [Example 37, N,N′-Di(isoquinolin-1-yl)-butane-1,4-diamine]
7 | 278 to 280 | c1ccc2c(N[C@H]3CC[C@H](Nc4nccc5ccccc45)CC3)nccc2c1 [Example 38, N,N′-Di(isoquinolin-1-yl)-transcyclohexane-1,4-diamine]
8 | 223 to 226 | c1cc(Nc2nnc3c4c(cccc24)-c2ccccc2-3)cc(-n2ccnc2)c1 [Example 39, (Indeno[1,2,3-de]phthalazin-3-yl)-[3-(imidazol-1-yl)-phenyl]-amine]
9 | 149 to 152 | c1cc(CNc2nccc3ccccc23)cc(Nc2nnc3c4c(cccc24)-c2ccccc2-3)c1 [Example 40, (Indeno[1,2,3-de]phthalazin-3-yl)-[3-(isoquinolin-1-ylaminomethyl)-phenyl]-amine]
10 | 164 to 167 | c1cc(Nc2nccc3ccccc23)cc(-n2ccnc2)c1 [Example 44, [3-(Imidazol-1-yl)-phenyl]-(isoquinolin-1-yl)-amine]
11 | 135 to 137 | c1cc(Nc2nncc3ccccc23)cc(-n2ccnc2)c1 [Example 45, [3-(Imidazol-1-yl)-phenyl]-(phthalazin-1-yl)-amine]
12 | 95 to 105 | c1ccc2c(c1)-c1cccc3c(NCCCCNc4nccc5ccccc45)nnc-2c13 [Example 46, N-(Indeno[1,2,3-de]phthalazin-3-yl)-N′-(isoquinolin-1-yl)-butane-1,4-diamine]
13 | 235 to 237 | Cc1ncc(-c2cccc(Nc3ncnc4c3CCOc3ccccc3-4)c2)n1C [Example 86, N-[3-(1,2-dimethyl-1H-imidazol-5-yl)phenyl]-5,6-dihydro[1]benzoxepino[5,4-d]pyrimidin-4-amine]
14 | 152 to 156 | c1cc(Nc2ccc(-n3cccc3)cn2)cc(-n2ccnc2)c1 [Example 87, N-[3-(imidazol-1-yl)phenyl]-N-[5-(pyrrol-1-yl)pyridin-2-yl]-amine]
